Test system: β-Amyloid (Aβ) production in neuroblastoma SH-SY5Y cells (SH/APPwt)
Experiment: Measurement of β-amyloid (Aβ) production inhibitory effect in cell
Type: cell-based
Details: Homo sapiens, amount needed to inhibit Aβ production by 50%, Amyloid β1-40 in culture supernatant, 24 hours
Experimental: Neuroblastoma SH-SY5Y cells (SH/APPwt) with human wild-type β-APP excessively expressed therein were prepared at 8×10^5 cells/mL, and 150 μl portions thereof were inoculated into each well of a 96-well culture plate (Falcon). The cells were cultured for 2 hours at 37° C. in a 5% gaseous carbon dioxide incubator. Then, a solution which have been preliminarily prepared by adding and suspending the compound of the present invention (DMSO (dimethyl sulfoxide) solution) so as to be 2 μl/50 μl medium was added to the cell sap. Namely, the final DMSO concentration was 1%, and the amount of the cell culture was 200 μl. After the incubation was performed for 24 hours from the addition of the test compound, 100 μl of the culture supernatant was collected from each fraction. The amount of the Aβ in each fraction was measured. The Aβ amount was measured as follows. 10 μl of a homogeneous time resolved fluorescence (HTRF) measurement reagent (Amyloid β1-40 peptide; CIS bio international) and 10 μl of the culture supernatant were put into a 384-well half area microplate (black microplate, Costar) and mixed with each other, and then left standing overnight at 4° C. while the light was shielded. Then, the fluorescence intensity (excitation wavelength: 337 nm, measurement wavelength: 620 nm and 665 nm) was measured with a micro plate reader (Artemis K-101; FURUNO […]). […]

| SMILES | IC50 |
| --- | --- |
| N#Cc1ccc(C(=O)Nc2ccc(F)c([C@]3(C(F)(F)F)CCOC(N)=N3)c2)nc1 [Compound I-38] | 509 nM |

Target: Recombinant human BACE1 (Homo sapiens (Human), UniProt P56817)
Experiment: Assay of BACE1 inhibiting activity (HTRF, substrate peptide cleavage)
Type: biochemical
Details: 50% inhibitory concentration against enzymatic activity; 30° C., 3.5 hours, pH 5.0; read-out: IC50 value
Experimental: 48.5 μL of substrate peptide solution (Biotin-[…]-Eu: X=ε-amino-n-capronic acid, Eu=Europium cryptate) was added to each well of 96-hole half-area plate (a black plate: Costar), and after addition of 0.5 μl of the compound of the present invention (DMSO solution) and 1 μl of Recombinant human BACE1 (R&D Systems), the reaction mixture was incubated at 30° C. for 3.5 hours. […] The final concentrations of the substrate peptide and Recombinant human BACE1 were adjusted to 18 nmol/L and 7.4 nmol/L, respectively, and the reaction was performed in sodium acetate buffer (50 mmol/L sodium acetate, pH 5.0, 0.008% Triton X-100). After the incubation for reaction, 50 μl of 8.0 μg/ml Streptavidin-XL665 (CIS bio international) dissolved in phosphate buffer (150 mmol/L K2HPO4-KH2PO4, pH 7.0, 0.008% Triton X-100, 0.8 mol/L KF) was added to each well and left stand at 30° C. for 45 minutes. After then, fluorescence intensity was measured (excitation wavelength: 320 nm, measuring wavelength: 620 nm and 665 nm) using Wallac 1420 multilabel counter (Perkin Elmer life sciences). Enzymatic activity was determined from counting ratio of each wavelength (10,000× Count 665/Count 620) and 50% inhibitory concentration against the enzymatic activity (IC50) was calculated.

Chain of Recombinant human BACE1 (P56817 46-501): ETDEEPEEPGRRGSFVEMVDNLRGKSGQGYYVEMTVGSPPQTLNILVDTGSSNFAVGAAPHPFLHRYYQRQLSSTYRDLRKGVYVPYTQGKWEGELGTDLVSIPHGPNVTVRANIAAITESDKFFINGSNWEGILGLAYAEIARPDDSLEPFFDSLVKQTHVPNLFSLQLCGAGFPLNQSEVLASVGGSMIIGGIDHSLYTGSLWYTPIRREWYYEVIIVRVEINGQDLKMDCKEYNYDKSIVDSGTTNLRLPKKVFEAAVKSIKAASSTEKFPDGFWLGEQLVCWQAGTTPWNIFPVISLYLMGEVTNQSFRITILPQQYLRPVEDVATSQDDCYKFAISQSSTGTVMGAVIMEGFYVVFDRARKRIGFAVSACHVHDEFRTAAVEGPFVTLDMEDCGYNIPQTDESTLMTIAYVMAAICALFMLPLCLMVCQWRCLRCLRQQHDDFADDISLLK

| SMILES | IC50 |
| --- | --- |
| C[C@@]1(c2cc(NC(=O)c3ccc(C#N)cn3)ccc2F)CC2(COC2)OC(N)=N1 [Compound I-56] | 25 nM |
| CC12OC(N)=N[C@](CF)(c3cc(NC(=O)c4ccc(C#N)cn4)ccc3F)C1O2 (some centres unmarked) [Compound I-2] | 77.3 nM |
| C[C@]1(c2cc(NC(=O)c3coc(C(F)F)n3)ccc2F)N=C(N)O[C@H](CF)[C@@H]1F [Compound I-86] | 32.9 nM |
| C#C[C@@]1(c2cc(NC(=O)c3ccc(C#N)cn3)ccc2F)CCOC(N)=N1 [Compound I-14] | 96.8 nM |
| Cc1cc(C#N)cnc1C(=O)Nc1ccc(F)c([C@]2(C(F)F)CCOC(N)=N2)c1 [Compound I-4] | 90.2 nM |
| CC1(C)C[C@@](C)(c2cc(NC(=O)c3ccc(C#N)cn3)ccc2F)N=C(N)O1 [Compound I-1] | 94.2 nM |
| C[C@H]1OC(N)=N[C@](CF)(c2cc(NC(=O)c3ccc(C#N)cn3)ccc2F)[C@H]1CF [Compound I-100] | 113 nM |
| C#C[C@]1(c2cc(NC(=O)c3ccc(C#N)cn3)ccc2F)N=C(N)O[C@@H]2C[C@@H]21 [Compound I-21] | 65.4 nM |
| C#C[C@]1(c2cc(NC(=O)c3cnc(OCF)cn3)ccc2F)N=C(N)O[C@@H]2COC[C@@H]21 [Compound I-72] | 13.6 nM |
| C[C@]1(c2cc(NC(=O)c3ccc(C#N)cn3)ccc2F)N=C(N)OC2(COC2)[C@@H]1F [Compound I-95] | 20.7 nM |
| C[C@@]1(c2cc(NC(=O)c3ccc(C#N)cn3)ccc2F)CCCOC(N)=N1 [Compound I-13] | 153 nM |

Same assay, conditions: bound stated for a list of compounds; 30° C., 3.5 hours, pH 5.0; read-out: IC50 values

| SMILES | IC50 |
| --- | --- |
| CO[C@H]1[C@@H](C(F)F)OC(N)=N[C@]1(C)c1cc(NC(=O)c2ccc(F)cn2)ccc1F [Compound I-119] | ≤ 1000 nM |
| NC1=N[C@@](c2cc(NC(=O)c3cnc(OCF)cn3)ccc2F)(C(F)F)CCCO1 [Compound I-47] | ≤ 1000 nM |
| N#Cc1ccc(C(=O)Nc2ccc(F)c([C@]34CCO[C@H]3[C@@H](CF)OC(N)=N4)c2)nc1 [Compound I-110] | ≤ 1000 nM |
| C[C@]1(c2cc(NC(=O)c3coc(CF)n3)ccc2F)N=C(N)O[C@H](CF)[C@@H]1F [Compound I-85] | ≤ 1000 nM |
| NC1=N[C@@]2(c3cc(NC(=O)c4cnc(OCF)cn4)ccc3F)CCO[C@H]2[C@@H](CF)O1 [Compound I-111] | ≤ 1000 nM |
| CO[C@H]1[C@@H](C(F)F)OC(N)=N[C@]1(C)c1cc(NC(=O)c2ccc(C#N)cn2)ccc1F [Compound I-116] | ≤ 1000 nM |
| C#C[C@]1(c2cc(NC(=O)c3coc(C(F)F)n3)ccc2F)N=C(N)O[C@@H]2COC[C@@H]21 [Compound I-73] | ≤ 1000 nM |
| N#Cc1ccc(C(=O)Nc2ccc(F)c([C@]34CCO[C@H]3COC(N)=N4)c2)nc1 [Compound I-108] | ≤ 1000 nM |
| CO[C@H]1[C@@H](C(F)F)OC(N)=N[C@]1(C)c1cc(NC(=O)c2cnc(OCF)cn2)ccc1F [Compound I-118] | ≤ 1000 nM |
| COC[C@@H]1C[C@@](CF)(c2cc(NC(=O)c3ccc(C#N)cn3)ccc2F)N=C(N)O1 [Compound I-37] | ≤ 1000 nM |
| Cc1cc(C#N)cnc1C(=O)Nc1ccc(F)c([C@@]2(C)N=C(N)O[C@H](CF)[C@@H]2F)c1 [Compound I-26] | ≤ 1000 nM |
